Measured values from patent publication US8025894B2, “Innovative formulation” (Endura S.p.A., priority 2005, dated 2011).

Tested on: Bemisia tabaci (whitefly) biotype B
Test: Mortality assay (leaf dip bioassay)
Format: in vivo
Conditions: adult insects on treated cotton leaf discs, mortality evaluated at 24 and 48 hours
Experimental: The “leaf dip bioassay” used for testing the activity of insecticides against Bemisia tabaci (whitefly) biotype B, was similar to that described by Cahill, M et al, Bull. Entomol. Res. 85, 181-187, 1995.
Cotton plants (Gossypium hirsutum L.) were grown without any exposure to the insecticides. The leaves were cut up into disc shapes and immersed in an aqueous solution of insecticide containing 0.01% of Agral then left to dry at 25° C.
Control leaves were immersed in Agral and distilled water only.
About 20 adult insects were placed onto the small discs of treated cotton leaf.
The insects were allowed to feed and maximum mortality was evaluated at 24 and 48 hours.
LC50% a.i. (=active ingredient) and LC99% a.i. indicate the quantity of insecticide able to achieve mortality for 50% and 99% of the insects tested.
As a comparison, the data obtained with commercial bifenthrin in the absence of the synergistic compound (PBO) and the data obtained with commercial bifenthrin in a mixture with the same quantity of PBO present in the formulation product of example 1 are given in the same table.

SMILES: Cc1c(COC(=O)[C@@H]2[C@H](/C=C(\Cl)C(F)(F)F)C2(C)C)cccc1-c1ccccc1 (racemic) [Bifenthrin]
- LC50% a.i. (quantity of insecticide giving 50% mortality): 0.01 ppm
- LC99% a.i. (quantity of insecticide giving 99% mortality): 257 ppm
